What was measured:
[1] = tested on: hypertriglyceridemic patients with cardiovascular disease or at high risk for cardiovascular disease; test: REDUCE-IT: bleeding-related adverse events (serious and any, by category, preferred term, antithrombotic medication, fatal association); format: in vivo
Description: Adverse Events of Special Interest: Bleeding-related adverse events, glucose control (fasting blood glucose and HbA1c), and indicators of hepatic disorders (e.g., ALT or AST increases >3×ULN, total bilirubin increases of ≥2×ULN) were summarized separately and compared between treatment groups.
Due to the convergence of clinical events shortly before a patient's death, direct causality of an individual bleeding event with death cannot always be determined. Bleeding-related clinical events (i.e., TEAEs, SAEs, or positively adjudicated endpoints) that occurred proximal to death (per site Investigator, CEC, or Sponsor medical assessment) are presented in Table 82 and occurred in 23 (0.6%) patients in the AMR101 group and 34 (0.8%) patients in the placebo group, with no statistically significant difference between treatment groups (p=0.18). Sponsor medical assessment classified 20 (0.5%) patients in the AMR101 group and 23 (0.6%) patients in the placebo group as having a bleeding event that likely contributed to death, with no statistically significant difference between treatment groups (p=0.76). […] None of these 57 deaths were associated with study drug per Investigator assessment; one bleeding event in each treatment group was considered possibly related to study drug per Investigator assessment.
A summary of baseline or on-treatment anti-thrombic medication use by type in patients with serious bleeding events for the ITT population is provided in Tables 97A-97D.

[2] = tested on: hypertriglyceridemic patients with cardiovascular disease or at high risk for cardiovascular disease; test: REDUCE-IT: post hoc analyses of primary + risk and key secondary + risk composite endpoints (adding atrial fibrillation/flutter and bleeding); format: in vivo, human; settings: ITT

With CC/C=C\C/C=C\C/C=C\C/C=C\C/C=C\CCCC(=O)OCC [AMR101, eicosapentaenoic acid ethyl ester] the “Serious bleeding TEAE: Pericardial Hemorrhage” value ([1]; human, in vivo) was 0 (0.0%) n (%), the “Serious bleeding TEAE: Post Procedural Hematoma” value ([1]; human, in vivo) was 1 (0.0%) n (%) and the “Serious bleeding TEAE: Post Procedural Hematuria” value ([1]; human, in vivo) was 0 (0.0%) n (%). For the same compound, the “Serious bleeding TEAE: Post Procedural Hemorrhage” value ([1]; human, in vivo) was 5 (0.1%) n (%), the “Serious bleeding TEAE: Renal Hemorrhage” value ([1]; human, in vivo) was 0 (0.0%) n (%) and the “Serious bleeding TEAE: Retinal Hemorrhage” value ([1]; human, in vivo) was 1 (0.0%) n (%). For the same compound, the “Serious bleeding TEAE: Retroperitoneal Hematoma” value ([1]; human, in vivo) was 0 (0.0%) n (%), the “Serious bleeding TEAE: Retroperitoneal Hemorrhage” value ([1]; human, in vivo) was 1 (0.0%) n (%) and the “Serious bleeding TEAE: Shock Hemorrhagic” value ([1]; human, in vivo) was 2 (0.0%) n (%). The “Serious bleeding TEAE: Subarachnoid Hemorrhage” value ([1]; human, in vivo) was 2 (0.0%) n (%), the “Serious bleeding TEAE: Subdural Hemorrhage” value ([1]; human, in vivo) was 2 (0.0%) n (%) and the “Serious bleeding TEAE: Traumatic Hematoma” value ([1]; human, in vivo) was 2 (0.0%) n (%). The “Serious bleeding TEAE: Traumatic Intracranial Hemorrhage” value ([1]; human, in vivo) was 0 (0.0%) n (%), the “Serious bleeding TEAE: Ulcer Hemorrhage” value ([1]; human, in vivo) was 1 (0.0%) n (%) and the “Serious bleeding TEAE: Upper Gastrointestinal Hemorrhage” value ([1]; human, in vivo) was 3 (0.1%) n (%). The “Serious bleeding TEAE: Urinary Bladder Hemorrhage” value ([1]; human, in vivo) was 1 (0.0%) n (%), the “Serious bleeding TEAEs, %” value ([1]; human, in vivo) was “(2.7) %” and the “Serious bleeding TEAEs, patients” value ([1]; human, in vivo) was 2.7%. The “Serious bleeding adverse event - Epistaxis, % patients” value ([1]; human, in vivo) was “(0.2) %”, the “Serious bleeding adverse event - Epistaxis, n patients” value ([1]; human, in vivo) was 7 and the “Serious bleeding adverse event - Gl hemorrhage, % patients” value ([1]; human, in vivo) was “(0.6) %”. The “Serious bleeding adverse event - Gl hemorrhage, n patients” value ([1]; human, in vivo) was 26, the “Serious bleeding adverse event - Hematuria, % patients” value ([1]; human, in vivo) was “(0.2) %” and the “Serious bleeding adverse event - Hematuria, n patients” value ([1]; human, in vivo) was 8. The “Serious bleeding adverse event - Rectal hemorrhage, % patients” value ([1]; human, in vivo) was “(0.2) %”, the “Serious bleeding adverse event - Rectal hemorrhage, n patients” value ([1]; human, in vivo) was 10 and the “Serious bleeding adverse event - Subdural hematoma, % patients” value ([1]; human, in vivo) was “(0.2) %”. For the same compound, the “Serious bleeding adverse event - Subdural hematoma, n patients” value ([1]; human, in vivo) was 9, the “Serious central nervous system bleeding, patients” value ([1]; human, in vivo) was 0.3% and the “Serious gastrointestinal bleeding, patients” value ([1]; human, in vivo) was 1.5%. The “TEAE of special interest: Bleeding-related disorders, %” value ([1]; human, in vivo) was “(11.8) %”, the “TEAE of special interest: Central nervous system bleeding, %” value ([1]; human, in vivo) was “(0.5) %” and the “TEAE of special interest: Gastrointestinal bleeding, %” value ([1]; human, in vivo) was “(3.1) %”. The “TEAE of special interest: Other bleeding, %” value ([1]; human, in vivo) was “(9.2) %”, the “Serious bleeding TEAE: Gastrointestinal Hemorrhage” value ([1]; human, in vivo, 4.9 years) was 26 (0.6%) n (%) and the “Serious bleeding TEAE: Hematuria” value ([1]; human, in vivo, 4.9 years) was 8 (0.2%) n (%). For the same compound, the “Serious bleeding TEAE: Rectal Hemorrhage” value ([1]; human, in vivo, 4.9 years) was 10 (0.2%) n (%), the “Serious bleeding TEAE: Subdural Hematoma” value ([1]; human, in vivo, 4.9 years) was 9 (0.2%) n (%) and the “Patients with any bleeding/at risk” value ([1]; on treatment: Clopidogrel, ITT) was 124/951. For the same compound, the “AFib/AFlutter + MI + Stroke + Cardiac Arrest + Sudden Cardiac Death, Rate/1000 pt yrs” value [2] was 29.4 /1000 pt yrs, the “Key Secondary + AFib/AFlutter, Rate/1000 pt yrs” value [2] was 33.1 /1000 pt yrs and the “Key Secondary + Serious Bleeding, Rate/1000 pt yrs” value [2] was 32.1 /1000 pt yrs. The “Primary + AFib/AFlutter + Serious Bleeding, Rate/1000 pt yrs” value [2] was 53.5 /1000 pt yrs, the “Primary + AFib/AFlutter, Rate/1000 pt yrs” value [2] was 49.0 /1000 pt yrs and the “Primary + Serious Bleeding, Rate/1000 pt yrs” value [2] was 48.2 /1000 pt yrs. For the same compound, the “AFib/AFlutter + MI + Stroke + Cardiac Arrest + Sudden Cardiac Death, subjects with event” value ([2]; N = 4089) was 491, the “AFib/AFlutter + MI + Stroke + Cardiac Arrest + Sudden Cardiac Death, subjects with event (%)” value ([2]; N = 4089) was 12.0% and the “Key Secondary + AFib/AFlutter + Serious Bleeding, subjects with event” value ([2]; N = 4089) was 625. The “Key Secondary + AFib/AFlutter, subjects with event” value ([2]; N = 4089) was 552, the “Key Secondary + AFib/AFlutter, subjects with event (%)” value ([2]; N = 4089) was 13.5% and the “Key Secondary + Serious Bleeding, subjects with event” value ([2]; N = 4089) was 539. The “Key Secondary + Serious Bleeding, subjects with event (%)” value ([2]; N = 4089) was 13.2%, the “Primary + AFib/AFlutter + Serious Bleeding, subjects with event” value ([2]; N = 4089) was 850 and the “Primary + AFib/AFlutter + Serious Bleeding, subjects with event (%)” value ([2]; N = 4089) was 20.8%. For the same compound, the “Primary + AFib/AFlutter, subjects with event” value ([2]; N = 4089) was 785, the “Primary + AFib/AFlutter, subjects with event (%)” value ([2]; N = 4089) was 19.2% and the “Primary + Serious Bleeding, subjects with event” value ([2]; N = 4089) was 775. For the same compound, the “Primary + Serious Bleeding, subjects with event (%)” value ([2]; N = 4089) was 19.0%, the “AFib/AFlutter + MI + Stroke + Cardiac Arrest + Sudden Cardiac Death, HR (95% CI)” value ([2]; vs placebo) was 0.789 (0.701, 0.889) and the “Key Secondary + AFib/AFlutter + Serious Bleeding, HR (95% CI)” value ([2]; vs placebo) was 0.855 (0.768, 0.952). For the same compound, the “Key Secondary + AFib/AFlutter, HR (95% CI)” value ([2]; vs placebo) was 0.818 (0.731, 0.916), the “Key Secondary + Serious Bleeding, HR (95% CI)” value ([2]; vs placebo) was 0.789 (0.704, 0.884) and the “Primary + AFib/AFlutter + Serious Bleeding, HR (95% CI)” value ([2]; vs placebo) was 0.830 (0.757, 0.910). The “Primary + AFib/AFlutter, HR (95% CI)” value ([2]; vs placebo) was 0.803 (0.731, 0.883) and the “Primary + Serious Bleeding, HR (95% CI)” value ([2]; vs placebo) was 0.785 (0.714, 0.863).

From patent US12427134B2, “Methods of reducing the risk of cardiovascular events in a subject with atrial fibrillation and/or atrial flutter” (priority 2019, dated 2025)
